Measured values taken from US12161637B2, “Anti-cancer gold complex, process of synthesis and method of treatment thereof” (King Saud University, priority 2022, dated 2024).
Read-outs that look alike come from different tables or passages of the source.

Tests used:
Assay type in all cases: cell-based
[1] = system: MCF-7 cells; experiment: Mitochondrial membrane potential analysis, Muse MitoPotential Kit, flow cytometry; conditions: for percentage of depolarized cancer cells (mitochondrial membrane potential): 24 h
Protocol: Mitochondrial membrane potential is an important parameter to assess the integrity of mitochondria, which is a potential target in cancer therapeutics. The loss of mitochondrial membrane potential has been known to be associated with early stages of apoptosis and reactive oxygen species (ROS) induction. To assess the mitochondrial membrane potential, Muse® MitoPotential Kit (Luminex, IL, USA) was used. MCF-7 cells were seeded in a 6 well plate at 1.5×10^4 cells/well. […] DMSO was used as a negative control. The final DMSO concentration in each well was less than 0.1%. Then, cells were stained with MitoPotential reagents following the manufacture's protocol. The percentage of depolarized/live cells was estimated by flow cytometry.

[2] = system: MCF-7 breast cancer cells; experiment: Cell viability by MTT assay; conditions: read-out: IC50, cell viability (cytotoxicity)
Source text: Materials and methods: All organic ligands were purchased from Sigma-Aldrich and gold salts from Strom Chemicals USA. Breast cancer cell lines MCF-7 were obtained from American Type Culture Collection, ATCC (Virginia, USA). Dulbecco's Modified Eagle's Medium (DMEM), Fetal Bovine Serum (FBS), and 0.25% Trypsin 0.1% EDTA were obtained from Gibco (Grand Island, NY). The 3-(4,5-dimethylthiazol-2-yl)-2,5-diphenyltetrazolium bromide (MTT) and DMSO were purchased from Sigma-Aldrich (St. Louis, MO).
Cell viability was determined by 3-(4,5-dimethylthiazol-2-yl)-2,5-diphenyltetrazolium bromide (MTT) assay. Breast cancer cells, MCF-7, were seeded in a 96-well tissue culture plate at 10,000 cells/well in 200 μl of DMEM. […] Then, 20 μl of MTT (5 mg/mL) was added to the each well and incubated in a CO2 incubator at 37° C. in the dark for 3 h. After incubation, a purple-colored formazan dye is produced and appeared as dark crystals in the bottom of the wells. To dissolve the formazan crystals, the culture medium was discarded and 100 μL of isopropanol were added to each well. The absorbance was recorded at 570 nm against reagent blank. The cell viability was calculated by the formula below: Cell viability (%)=[Absorbance Compound/Absorbance DMSO]*100

[3] = system: MCF-7 cells; experiment: Oxidative stress analysis (ROS generation), Muse Oxidative Stress Kit, flow cytometry; conditions: 24 h
Protocol: The induction of oxidative stress via ROS generation endogenously in cancer cells is a potential target of anticancer agents. Oxidative stress causes irreversible cellular damage which induces apoptosis in concentration-dependent manner. MCF-7 cells were plated at 1.5×10^4 cells/well using a 6 well plate to estimate the generation of reactive oxygen species (ROS). […] DMSO was used as a negative control. The final DMSO concentration in each well was less than 0.1%. Then, the cells were harvested and stained with Muse® Oxidative Stress Kit (Luminex, IL, USA) following the manufacture's protocol. The percentage of cells that were undergoing oxidative stress was measured by flow cytometry.

[4] = system: MCF-7 breast cancer cell line; experiment: Apoptosis analysis, Muse Annexin V Live & Dead Cell Kit, flow cytometry; conditions: 24 h, versus control
Protocol: MCF-7 cells were seeded in 6 well plates at 1.5×10^4 cells per well. […] DMSO was used as a negative control. The final DMSO concentration in each well was less than 0.1%. The harvested cells were stained with Annexin V-FITC and Dead Cell reagent following the manufacture's protocol. Then, the percentage of apoptotic cells was estimated by flow cytometry.

[5] = MCF-7, higher concentration (5 μM)
[6] = MCF-7, lower concentration (1 μM)

SMILES	percentage of depolarized cancer cells (mitochondrial membrane potential) [1, 5] [%]	percentage of depolarized cancer cells (mitochondrial membrane potential) [1, 6] [%]	IC50 ([2]; Homo sapiens, MCF7, MCF-7, 24 h treatment) [µM]	ROS generation ([3]; MCF-7, 1 μM) [%]	ROS generation ([3]; MCF-7, 5 μM) [%]	mitochondrial membrane potential depolarization compared to positive control Sorafenib ([1]; MCF-7, 24 h)	IC50 ([2]; MCF-7, 24 h treatment) [µM]	induction of apoptosis (early and late combined) ([4]; MCF-7, 1 μM) [folds]	induction of apoptosis (early and late combined) ([4]; MCF-7, 3 μM) [folds]	induction of apoptosis (early and late combined) ([4]; MCF-7, 10 μM) [folds]
CNC(=O)c1cc(Oc2ccc(NC(=O)Nc3ccc(Cl)c(C(F)(F)F)c3)cc2)ccn1 [Sorafenib, reference compound]	12.0	2.7	4.45	73.76	122.11	–	–	–	–	–
O=Cc1ccnc(-c2cc(C=O)ccn2)c1.S=C([S][Au+2])N(Cc1ccccc1)Cc1ccccc1 [DDBDG, dibenzyldithiocarbamato-2,2′-bipyridine-4,4′-dicarboxaldehyde gold (III)]	27.8	27.0	–	125.53	103.47	roughly three-folds higher	0.875	2.2	4.4	5.5
